Results taken from US20240174690A1, “ANNULATED 2-AMINO-3-CYANO THIOPHENES AND DERIVATIVES FOR THE TREATMENT OF CANCER” (BOEHRINGER INGELHEIM INTERNATIONAL GMBH, priority 2021, published 2024).
One block for each molecule: values may come before it.

Columns and labels:
KRAS (G12D)::SOS1 = KRAS (G12D)::SOS1 (Homo sapiens (Human), UniProt P01116, G12D); experiment: KRAS::SOS1 AlphaScreen binding assay, KRAS G12D
Outline: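 AlphaScreen measurement of compound disruption of biotinylated, GDP-loaded KRAS 1-169 (10 nM; G12C 7.5 nM) binding to GST-SOS1 564-1049 (5 nM with G12D/G12C, 10 nM otherwise), with 10 μM GDP in PBS/0.1% BSA/0.05% Tween 20. Timing was 30 min compound preincubation, then 60 min with beads at room temperature; top concentration 100 μM, 4-parameter IC50.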

LOVO cells = experiment: LOVO CTG proliferation assay (120 h) (CRC, G13D); format: cell-based; conditions: Homo sapiens, CTG 120 h
Method: LOVO CTG Proliferation Assay (120 h) (CRC, G13D)
LOVO cells (ATCC CCL-229) are dispensed into 384-well plates, flat and clear bottom (Greiner, PNr. 781091) at a density of 1000 cells per well in 60 μL DMEM (Sigma D6429)+10% Fetal Calf Serum (HyClone, PNr.: SH30084.03) and incubated at 37° C. in a CO2 incubator overnight. The next day, compounds (10 mM stock in DMSO) are added with the ECHO acoustic liquid handler system (Beckman Coulter), including DMSO controls. Plates are incubated for 120 h, and cell viability is measured using CellTiter-Glo luminescent cell viability reagent (Promega product code G7570). Viability (stated as percent of control) is defined as relative luminescence units RLU of each well divided by the RLU of cells in DMSO controls. IC50 values are determined from viability measurements by non-linear regression using a four-parameter model.

[1] = Plasma protein binding assay (PPB), equilibrium dialysis, 10% FCS in PBS; format: in vitro ADME; conditions: bovine, read-out: PPB 10% FCS (% fu)
Outline: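 Test compound (1-10 μmol/L) in 10% FCS in PBS was dialysed for 3-5 h at 37° C versus PBS ± dextran across a semipermeable membrane. LC-MS of both compartments after protein precipitation gave Cserum and Cbuffer, from which the unbound fraction fu was derived.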

KRAS (G12D)::SOS1, sequence (P01116 other isoform, or with tags, fused parts or gaps G12D): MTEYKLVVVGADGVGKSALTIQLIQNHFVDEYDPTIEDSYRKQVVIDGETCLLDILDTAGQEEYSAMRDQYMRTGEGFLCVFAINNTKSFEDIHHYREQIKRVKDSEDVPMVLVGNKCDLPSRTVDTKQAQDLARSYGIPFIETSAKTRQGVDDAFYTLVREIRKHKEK

SMILES: C[C@H](Oc1cc(N2CCCC2=O)nc(-c2noc3c2CCC[C@@]32CCCc3sc(N)c(C#N)c32)n1)[C@@H]1CCCN1C [II-73]
IC50 (KRAS (G12D)::SOS1): 2 nM
IC50 (LOVO cells): 250 nM
fraction unbound [1]: 0.22

SMILES: C[C@H](Oc1cc(-n2ccnc2)nc(-c2noc3c2CCC[C@@]32CCCc3sc(N)c(C#N)c32)n1)[C@@H]1CCCN1C [II-69]
IC50 (KRAS (G12D)::SOS1): 2 nM
IC50 (LOVO cells): 52 nM
fraction unbound [1]: 0.45

SMILES: C[C@H](Oc1cc([C@H]2CCOC2)nc(-c2noc3c2CCC[C@@]32CCCc3sc(N)c(C#N)c32)n1)[C@@H]1CCCN1C [II-88]
IC50 (KRAS (G12D)::SOS1): 1 nM
IC50 (LOVO cells): 62 nM
fraction unbound [1]: 0.2

SMILES: C[C@H]1CN(C)CCCN1c1cc(N2CCN(C)CC2)nc(-c2onc3c2CCC[C@@]32CCCc3sc(N)c(C#N)c32)n1 [I-7]
IC50 (KRAS (G12D)::SOS1): 3 nM
IC50 (LOVO cells): 2810 nM
fraction unbound [1]: 0.36

SMILES: C[C@H](Oc1cc(N2CCNC3(CC3)C2)nc(-c2onc3c2CCC[C@@]32CCCc3sc(N)c(C#N)c32)n1)[C@@H]1CCCN1C [I-5]
IC50 (KRAS (G12D)::SOS1): 1 nM
IC50 (LOVO cells): 1640 nM
fraction unbound [1]: 0.51

SMILES: C[C@H](Oc1cc(N2CCNC2=O)nc(-c2noc3c2CCC[C@@]32CCCc3sc(N)c(C#N)c32)n1)[C@@H]1CCCN1C [II-64]
IC50 (KRAS (G12D)::SOS1): 1 nM
IC50 (LOVO cells): 96 nM
fraction unbound [1]: 0.23

SMILES: C[C@H](Oc1cc(N2CCC[C@@H](O)C2)nc(-c2noc3c2CCC[C@@]32CCCc3sc(N)c(C#N)c32)n1)[C@@H]1CCCN1C [II-59]
IC50 (KRAS (G12D)::SOS1): 2 nM
IC50 (LOVO cells): 72 nM
fraction unbound [1]: 0.64

SMILES: C[C@H](Oc1cc(-c2ccn(C)n2)nc(-c2noc3c2CCC[C@@]32CCCc3sc(N)c(C#N)c32)n1)[C@@H]1CCCN1C [II-96]
IC50 (KRAS (G12D)::SOS1): 2 nM
IC50 (LOVO cells): 231 nM
fraction unbound [1]: 0.25

SMILES: C[C@H](Oc1cc(C2COCCO2)nc(-c2noc3c2CCC[C@@]32CCCc3sc(N)c(C#N)c32)n1)[C@@H]1CCCN1C (stereo partly drawn) [II-95]
IC50 (KRAS (G12D)::SOS1): 2 nM
IC50 (LOVO cells): 149 nM
fraction unbound [1]: 0.53

SMILES: C[C@H](Oc1cc(N2CCN3CCC3C2)nc(-c2onc3c2CCC[C@@]32CCCc3sc(N)c(C#N)c32)n1)[C@@H]1CCCN1C (stereo partly drawn) [I-9]
IC50 (KRAS (G12D)::SOS1): 2 nM
IC50 (LOVO cells): 649 nM
fraction unbound [1]: 0.8

SMILES: C[C@H](Oc1cc(N2CC[C@H](N(C)C)C2)nc(-c2noc3c2CCC[C@@]32CCCc3sc(N)c(C#N)c32)n1)[C@@H]1CCCN1C [II-49]
IC50 (KRAS (G12D)::SOS1): 1 nM
IC50 (LOVO cells): 651 nM
fraction unbound [1]: 0.36

SMILES: C[C@H](Oc1cc(N2C[C@H](C)N[C@@H](C)C2)nc(-c2noc3c2CCC[C@@]32CCCc3sc(N)c(C#N)c32)n1)[C@@H]1CCCN1C [II-56]
IC50 (KRAS (G12D)::SOS1): 1 nM
IC50 (LOVO cells): 661 nM
fraction unbound [1]: 0.48

SMILES: C[C@H](Oc1cc(-c2cnn(C)n2)nc(-c2noc3c2CCC[C@@]32CCCc3sc(N)c(C#N)c32)n1)[C@@H]1CCCN1C [II-86]
IC50 (KRAS (G12D)::SOS1): 5 nM
IC50 (LOVO cells): 77 nM
fraction unbound [1]: 0.34

SMILES: C[C@H](Oc1cc(N2CCNC[C@@]23CCOC3)nc(-c2noc3c2CCC[C@@]32CCCc3sc(N)c(C#N)c32)n1)[C@@H]1CCCN1C [II-51]
IC50 (KRAS (G12D)::SOS1): 1 nM
IC50 (LOVO cells): 772 nM
fraction unbound [1]: 0.39

SMILES: C[C@H](Oc1cc([C@@H]2CCOC2)nc(-c2noc3c2CCC[C@@]32CCCc3sc(N)c(C#N)c32)n1)[C@@H]1CCCN1C [II-94]
IC50 (KRAS (G12D)::SOS1): 1 nM
IC50 (LOVO cells): 51 nM
fraction unbound [1]: 0.31

SMILES: C[C@H](Oc1cc(-n2cccc3cnnc2-3)nc(-c2noc3c2CCC[C@@]32CCCc3sc(N)c(C#N)c32)n1)[C@@H]1CCCN1C [II-92]
IC50 (KRAS (G12D)::SOS1): 14 nM
IC50 (LOVO cells): 467 nM
fraction unbound [1]: 0.09

SMILES: CC(=O)N1CC=C(c2cc(O[C@@H](C)[C@@H]3CCCN3C)nc(-c3noc4c3CCC[C@@]43CCCc4sc(N)c(C#N)c43)n2)CC1 [II-81]
IC50 (KRAS (G12D)::SOS1): 5 nM
IC50 (LOVO cells): 289 nM
fraction unbound [1]: 0.52

SMILES: C[C@H](Oc1cc(-n2cncn2)nc(-c2noc3c2CCC[C@@]32CCCc3sc(N)c(C#N)c32)n1)[C@@H]1CCCN1C [II-70]
IC50 (KRAS (G12D)::SOS1): 2 nM
IC50 (LOVO cells): 77 nM
fraction unbound [1]: 0.44

SMILES: Cc1cn(C)nc1-c1cc(O[C@@H](C)[C@@H]2CCCN2C)nc(-c2noc3c2CCC[C@@]32CCCc3sc(N)c(C#N)c32)n1 [II-68]
IC50 (KRAS (G12D)::SOS1): 9 nM
IC50 (LOVO cells): 894 nM
fraction unbound [1]: 0.09

SMILES: C[C@H](Oc1cc(N2CCc3cccnc32)nc(-c2noc3c2CCC[C@@]32CCCc3sc(N)c(C#N)c32)n1)[C@@H]1CCCN1C [II-90]
IC50 (KRAS (G12D)::SOS1): 21 nM
IC50 (LOVO cells): 735 nM
fraction unbound [1]: 0.01

SMILES: CO[C@@H]1C[C@@H]([C@H](C)Oc2cc(-n3ccnc3)nc(-c3noc4c3CCC[C@@]43CCCc4sc(N)c(C#N)c43)n2)N(C)C1 [II-58]
IC50 (KRAS (G12D)::SOS1): 3 nM
IC50 (LOVO cells): 113 nM
fraction unbound [1]: 0.31

Second part, the molecule after the results:

IC50 (KRAS (G12D)::SOS1): 3 nM
IC50 (LOVO cells): 309 nM
fraction unbound [1]: 0.11
SMILES: C[C@H](Oc1cc(-c2cnsc2)nc(-c2noc3c2CCC[C@@]32CCCc3sc(N)c(C#N)c32)n1)[C@@H]1CCCN1C [II-111]

IC50 (KRAS (G12D)::SOS1): 9 nM
IC50 (LOVO cells): 401 nM
fraction unbound [1]: 0.24
SMILES: C[C@H](Oc1cc(-n2ccnc2)nc(-c2noc3c2CCC[C@@]32CCCc3sc(N)c(C#N)c32)n1)[C@@H]1C[C@@H](F)CN1C [II-120]

IC50 (KRAS (G12D)::SOS1): 13 nM
IC50 (LOVO cells): 683 nM
fraction unbound [1]: 0.13
SMILES: C[C@H](Oc1cc(-c2cccc(CO)c2)nc(-c2noc3c2CCC[C@@]32CCCc3sc(N)c(C#N)c32)n1)[C@@H]1CCCN1C [II-97]

IC50 (KRAS (G12D)::SOS1): 2 nM
IC50 (LOVO cells): 58 nM
fraction unbound [1]: 0.19
SMILES: C[C@H](Oc1cc(-c2ccn(C[C@@H](C)O)n2)nc(-c2noc3c2CCC[C@@]32CCCc3sc(N)c(C#N)c32)n1)[C@@H]1CCCN1C [II-117]

IC50 (KRAS (G12D)::SOS1): 3 nM
IC50 (LOVO cells): 92 nM
fraction unbound [1]: 0.01
SMILES: C[C@H](Oc1cc(-n2ccc(Br)n2)nc(-c2noc3c2CCC[C@@]32CCCc3sc(N)c(C#N)c32)n1)[C@@H]1CCCN1C [II-110]

IC50 (KRAS (G12D)::SOS1): 4 nM
IC50 (LOVO cells): 295 nM
fraction unbound [1]: 0.08
SMILES: C[C@H](Oc1cc(-n2cc(C3CC3)nn2)nc(-c2noc3c2CCC[C@@]32CCCc3sc(N)c(C#N)c32)n1)[C@@H]1CCCN1C [II-118]

IC50 (KRAS (G12D)::SOS1): 2 nM
IC50 (LOVO cells): 128 nM
fraction unbound [1]: 0.4
SMILES: C[C@H](Oc1cc(-n2cc(Cn3cncn3)nn2)nc(-c2noc3c2CCC[C@@]32CCCc3sc(N)c(C#N)c32)n1)[C@@H]1CCCN1C [II-124]

IC50 (KRAS (G12D)::SOS1): 4 nM
IC50 (LOVO cells): 180 nM
fraction unbound [1]: 0.44
SMILES: CNC(=O)c1cn(-c2cc(O[C@@H](C)[C@@H]3CCCN3C)nc(-c3noc4c3CCC[C@@]43CCCc4sc(N)c(C#N)c43)n2)nn1 [II-122]

IC50 (KRAS (G12D)::SOS1): 1 nM
IC50 (LOVO cells): 58 nM
fraction unbound [1]: 0.41
SMILES: C[C@H](O)Cn1ccc(-c2cc(O[C@@H](C)[C@@H]3CCCN3C)nc(-c3noc4c3CCC[C@@]43CCCc4sc(N)c(C#N)c43)n2)n1 [II-112]

IC50 (KRAS (G12D)::SOS1): 4 nM
IC50 (LOVO cells): 1020 nM
fraction unbound [1]: 0.23
SMILES: C[C@H](Oc1cc(-c2ccc(N)nc2)nc(-c2noc3c2CCC[C@@]32CCCc3sc(N)c(C#N)c32)n1)[C@@H]1CCCN1C [II-101]

IC50 (KRAS (G12D)::SOS1): 2 nM
IC50 (LOVO cells): 152 nM
fraction unbound [1]: 0.04
SMILES: C[C@H](Oc1cc(-n2ccc(-c3ccccn3)n2)nc(-c2noc3c2CCC[C@@]32CCCc3sc(N)c(C#N)c32)n1)[C@@H]1CCCN1C [II-119]

IC50 (KRAS (G12D)::SOS1): 4 nM
IC50 (LOVO cells): 286 nM
fraction unbound [1]: 0.11
SMILES: C[C@H](Oc1cc(N2CCC(C#N)C2)nc(-c2noc3c2CCC[C@@]32CCCc3sc(N)c(C#N)c32)n1)[C@@H]1CCCN1C (stereo partly drawn) [II-99]

IC50 (KRAS (G12D)::SOS1): 6 nM
IC50 (LOVO cells): 83 nM
fraction unbound [1]: 0.28
SMILES: C[C@H](Oc1cc(-c2cn(C3COC3)nn2)nc(-c2noc3c2CCC[C@@]32CCCc3sc(N)c(C#N)c32)n1)[C@@H]1CCCN1C [II-100]
